# Test results reported in patent publication US12655116B2, “Substituted isophthalic acid diamides” (Bayer Aktiengesellschaft, priority 2020, dated 2026).
# What was measured:
# ECHCG [1] = experiment: Pre-emergence herbicidal action against ECHCG; format: in vivo, Echinochloa crus-galli
# Method in brief: (§1)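 Seeds sown in sandy loam, soil-covered; compound sprayed on soil surface pre-emergence. Application: WP/EC, 600–800 l/ha, 0.2% wetting agent. Readout: visual % damage at 3 weeks.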
# MATIN [2] = experiment: Post-emergence herbicidal action against MATIN; format: in vivo, Matricaria inodora; conditions: dosage 20 g/ha
# Method in brief: (§2)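 Sandy loam, greenhouse; treatment 2–3 weeks after sowing, one-leaf stage. Aqueous suspension or emulsion from WP/EC sprayed on foliage (600–800 l/ha, 0.2% wetting agent). Readout: visual % action, ~3 weeks.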
# AMARE [3] = experiment: Pre-emergence herbicidal action against AMARE; format: in vivo, Amaranthus retroflexus
# Method in brief: as §1
# ABUTH [4] = experiment: Post-emergence herbicidal action against ABUTH; format: in vivo, Abutilon theophrasti; conditions: visual assessment about 3 weeks after treatment vs untreated controls
# Method in brief: as §2
# PHBPU [5] = experiment: Pre-emergence herbicidal action against PHBPU; format: in vivo, Pharbitis purpurea
# Method in brief: as §1
# LOLRI = experiment: Pre-emergence herbicidal action against LOLRI; format: in vivo, Lolium rigidum; conditions: 80 g/ha
# Method in brief: as §1
# VERPE [6] = experiment: Post-emergence herbicidal action against VERPE; format: in vivo, Veronica persica; conditions: 20 g/ha
# Method in brief: as §2
# ECHCG [7] = experiment: Post-emergence herbicidal action against ECHCG; format: in vivo, Echinochloa crus-galli
# Method in brief: as §2
# POLCO = experiment: Pre-emergence herbicidal action against POLCO; format: in vivo, Polygonum convolvulus
# Method in brief: as §1
# MATIN [8] = experiment: Pre-emergence herbicidal action against MATIN; format: in vivo, Matricaria inodora
# Method in brief: as §1
# VIOTR [9] = experiment: Pre-emergence herbicidal action against VIOTR; format: in vivo, Viola tricolor
# Method in brief: as §1
# AMARE [10] = experiment: Post-emergence herbicidal action against AMARE; format: in vivo, Amaranthus retroflexus; conditions: 20 g/ha, visual assessment about 3 weeks after treatment, 100% = plants have died, 0% = like control plants
# Method in brief: as §2
# ALOMY [11] = experiment: Post-emergence herbicidal action against ALOMY; format: in vivo, Alopecurus myosuroides; conditions: visual assessment about 3 weeks after treatment vs untreated controls
# Method in brief: as §2
# ABUTH [12] = experiment: Pre-emergence herbicidal action against ABUTH; format: in vivo, Abutilon theophrasti
# Method in brief: as §1
# VERPE [13] = experiment: Pre-emergence herbicidal action against VERPE; format: in vivo, Veronica persica; conditions: dosage 80 g/ha
# Method in brief: as §1
# PHBPU [14] = experiment: Post-emergence herbicidal action against PHBPU; format: in vivo, Pharbitis purpurea
# Method in brief: as §2
# AVEFA = experiment: Pre-emergence herbicidal action against AVEFA; format: in vivo, Avena fatua
# Method in brief: as §1
# SETVI = experiment: Pre-emergence herbicidal action against SETVI; format: in vivo, Setaria viridis
# Method in brief: as §1
# ALOMY [15] = experiment: Pre-emergence herbicidal action against ALOMY; format: in vivo, Alopecurus myosuroides
# Method in brief: as §1
# DIGSA [16] = experiment: Pre-emergence herbicidal action against DIGSA; format: in vivo, Digitaria sanguinalis
# Method in brief: as §1
# VIOTR [17] = experiment: Post-emergence herbicidal action against VIOTR; format: in vivo, Viola tricolor; conditions: Viola tricolor, 504 h
# Method in brief: as §2
# DIGSA [18] = experiment: Post-emergence herbicidal action against DIGSA; format: in vivo, Digitaria sanguinalis; conditions: Digitaria sanguinalis, 504 h
# Method in brief: as §2
# [19] = 80 g/ha, scored visually after 3 weeks vs untreated controls (100% = plants have died, 0% = like control plants)
# [20] = 20 g/ha, scored visually after 3 weeks, 100% = plants have died, 0% = like control plants
compound,measurement,setting,value
CCn1nnnc1NC(=O)c1ccc(C(F)(F)F)c(C(=O)NC2CCC2)c1C [Example 2-42],Pre-emergence action against ECHCG in %,ECHCG [1]; 20 g/ha,90%
same,Pre-emergence action against ECHCG in %,ECHCG [1]; 80 g/ha,100%
same,Post-emergence action against MATIN in %,MATIN [2],80%
same,Pre-emergence action against AMARE in %,"AMARE [3]; 20 g/ha, scored visually after 3 weeks vs untreated controls, 100% = plants have died, 0% = like control plants",100%
same,Pre-emergence action against AMARE in %,AMARE [3]; [19],100%
same,Post-emergence action against ABUTH in %,ABUTH [4]; dosage 5 g/ha,80%
same,Post-emergence action against ABUTH in %,ABUTH [4]; dosage 20 g/ha,90%
same,Pre-emergence action against PHBPU in %,PHBPU [5]; dosage 20 g/ha,80%
same,Pre-emergence action against PHBPU in %,PHBPU [5]; dosage 80 g/ha,90%
same,Pre-emergence action against LOLRI in %,LOLRI,80%
same,Post-emergence action against VERPE in %,VERPE [6],90%
same,Post-emergence action against ECHCG in %,ECHCG [7]; dosage 5 g/ha,90%
same,Post-emergence action against ECHCG in %,ECHCG [7]; dosage 20 g/ha,100%
same,Pre-emergence action against POLCO in %,POLCO; dosage 80 g/ha,80%
same,Pre-emergence action against MATIN in %,MATIN [8]; dosage 20 g/ha,100%
same,Pre-emergence action against MATIN in %,MATIN [8]; dosage 80 g/ha,100%
same,Pre-emergence action against VIOTR in %,VIOTR [9]; dosage 20 g/ha,100%
same,Pre-emergence action against VIOTR in %,VIOTR [9]; dosage 80 g/ha,100%
same,Post-emergence action at 20 g/ha against AMARE in %,AMARE [10],100%
same,Post-emergence action against ALOMY in %,ALOMY [11]; dosage 5 g/ha,90%
same,Post-emergence action against ALOMY in %,ALOMY [11]; dosage 20 g/ha,100%
same,Pre-emergence action against ABUTH (herbicidal activity),ABUTH [12]; [19],100%
same,Pre-emergence action against ABUTH (herbicidal activity in percent),"ABUTH [12]; dosage 20 g/ha, scored visually after 3 weeks vs untreated controls, 100% = plants have died, 0% = like control plants",100%
same,Pre-emergence action against VERPE in %,VERPE [13],90%
same,Post-emergence action against PHBPU in %,PHBPU [14]; dosage 5 g/ha,90%
same,Post-emergence action against PHBPU in %,PHBPU [14]; dosage 20 g/ha,90%
same,Pre-emergence action against AVEFA,AVEFA; [20],80%
same,Pre-emergence action against AVEFA in %,"AVEFA; 80 g/ha, pre-emergence",90%
same,Pre-emergence action against SETVI in %,SETVI; dosage 20 g/ha,80%
same,Pre-emergence action against SETVI in %,SETVI; dosage 80 g/ha,100%
same,Pre-emergence action against ALOMY,ALOMY [15]; [20],80%
same,Pre-emergence action against ALOMY (herbicidal activity),"ALOMY [15]; 80 g/ha, pre-emergence, scored visually after 3 weeks vs untreated controls (100% = plants have died, 0% = like control plants)",90%
same,Pre-emergence action against DIGSA in %,DIGSA [16]; dosage 20 g/ha,100%
same,Pre-emergence action against DIGSA in %,DIGSA [16]; dosage 80 g/ha,100%
CCc1c(C(=O)Nc2nnnn2CC)ccc(C(F)F)c1C(=O)NC1CC1 [Example 2-279],pest or weed control at 5 g/ha,VIOTR [17]; 5 g/ha,80%
same,pest or weed control at 20 g/ha,VIOTR [17]; 20 g/ha,90%
same,pest or weed control at 80 g/ha,"ECHCG [1]; Echinochloa crus-galli, 504 h, 80 g/ha",100%
same,pest or weed control at 20 g/ha,"MATIN [2]; Tripleurospermum inodorum, 504 h",80%
same,pest or weed control at 20 g/ha,"AMARE [3]; Amaranthus retroflexus, 504 h, 20 g/ha, scored visually after 3 weeks vs untreated controls, 100% = plants have died, 0% = like control plants",100%
same,pest or weed control at 80 g/ha,"AMARE [3]; Amaranthus retroflexus, 504 h, 80 g/ha, scored visually after 3 weeks vs untreated controls, 100% = plants have died, 0% = like control plants",100%
same,pest or weed control at 20 g/ha,"ABUTH [4]; Abutilon theophrasti, 504 h, dosage 20 g/ha",80%
same,pest or weed control at 20 g/ha,"PHBPU [5]; Ipomoea purpurea, 504 h, dosage 20 g/ha",80%
same,pest or weed control at 80 g/ha,"PHBPU [5]; Ipomoea purpurea, 504 h, dosage 80 g/ha",90%
same,pest or weed control at 80 g/ha,"LOLRI; Lolium rigidum, 504 h",80%
same,pest or weed control at 20 g/ha,"VERPE [6]; Veronica persica, 504 h",90%
same,pest or weed control at 20 g/ha,"ECHCG [7]; Echinochloa crus-galli, 504 h, dosage 20 g/ha",90%
same,pest or weed control at 20 g/ha,"POLCO; Fallopia convolvulus, 504 h, dosage 20 g/ha",80%
same,pest or weed control at 80 g/ha,"POLCO; Fallopia convolvulus, 504 h, dosage 80 g/ha",90%
same,pest or weed control at 5 g/ha,DIGSA [18]; 5 g/ha,90%
same,pest or weed control at 20 g/ha,DIGSA [18]; 20 g/ha,90%
same,pest or weed control at 20 g/ha,"MATIN [8]; Tripleurospermum inodorum, 504 h, dosage 20 g/ha",90%
same,pest or weed control at 80 g/ha,"MATIN [8]; Tripleurospermum inodorum, 504 h, dosage 80 g/ha",100%
same,pest or weed control at 20 g/ha,"VIOTR [9]; Viola tricolor, 504 h, dosage 20 g/ha",100%
same,pest or weed control at 80 g/ha,"VIOTR [9]; Viola tricolor, 504 h, dosage 80 g/ha",100%
same,pest or weed control at 20 g/ha,"AMARE [10]; Amaranthus retroflexus, 504 h",100%
same,pest or weed control at 80 g/ha,"ABUTH [12]; Abutilon theophrasti, 504 h, 80 g/ha, scored visually after 3 weeks vs untreated controls (100% = plants have died, 0% = like control plants)",100%
same,pest or weed control at 20 g/ha,"ABUTH [12]; Abutilon theophrasti, 504 h, dosage 20 g/ha, scored visually after 3 weeks vs untreated controls, 100% = plants have died, 0% = like control plants, read-out: Pre-emergence action against ABUTH (herbicidal activity in percent)",80%
same,pest or weed control at 80 g/ha,"VERPE [13]; Veronica persica, 504 h",90%
same,pest or weed control at 80 g/ha,"AVEFA; Avena fatua, 504 h, 80 g/ha, pre-emergence",100%
same,pest or weed control at 20 g/ha,"SETVI; Setaria viridis, 504 h, dosage 20 g/ha",80%
same,pest or weed control at 80 g/ha,"SETVI; Setaria viridis, 504 h, dosage 80 g/ha",100%
same,pest or weed control at 80 g/ha,"ALOMY [15]; Alopecurus myosuroides, 504 h, 80 g/ha, pre-emergence, scored visually after 3 weeks vs untreated controls (100% = plants have died, 0% = like control plants)",90%
same,pest or weed control at 20 g/ha,"ALOMY [15]; Alopecurus myosuroides, pre-emergence, 504 h, 20 g/ha, scored visually after 3 weeks, 100% = plants have died, 0% = like control plants",80%
same,pest or weed control at 20 g/ha,"DIGSA [16]; Digitaria sanguinalis, 504 h, dosage 20 g/ha",90%
same,pest or weed control at 80 g/ha,"DIGSA [16]; Digitaria sanguinalis, 504 h, dosage 80 g/ha",100%
